Measured values from US11090285B2, “Treatment of circadian rhythm disorders” (Vanda Pharmaceuticals Inc., priority 2013, dated 2021).
Read-outs that look alike come from different tables or passages of the source.

What was measured:
[1] = Pharmacokinetics on co-administration of tasimelteon and fluvoxamine; assay type: in vivo, human; settings: for AUC (inf), Geometric Mean Ratio / Cmax, Geometric Mean Ratio / t½, Geometric Mean Ratio: Day 8 vs Day 1; for half-life: read-out: t½ (converted)
Method: Twenty-four healthy male or female subjects between the ages of 18 and 55 years of age (inclusive) who were non-smokers with a body mass index (BMI) of ≥18 and ≤35 kg/m2 participated in this open-label, single-sequence study conducted at one site. On day 1, subjects were administered […] of tasimelteon.

[2] = Effect of smoking on pharmacokinetics of tasimelteon and metabolites; assay type: in vivo, human; parameters: AUC (inf) / AUC(0-inf): concentration or dose not given beside the values; settings: for AUC (inf), Geometric Mean Ratio / Cmax, Geometric Mean Ratio / t½, Geometric Mean Ratio: Smokers vs Non-Smokers; for half-life: read-out: t½ (converted)
Description: Smokers were defined as those smoking 10 or more cigarettes per day. Non-smokers were defined as those smoking no cigarettes per day.

[3] = in vivo; cited from earlier work
[4] = both sexes, human, in vivo, Day 1, 5.667 mg tasimelteon alone, read-out: Cmax
[5] = both sexes, human, in vivo, Day 1, 5.667 mg tasimelteon alone, read-out: Tmax
[6] = both sexes, human, in vivo, Day 1, 5.667 mg tasimelteon alone
[7] = human, in vivo, Non-Smokers, read-out: Cmax
[8] = human, in vivo, Smokers (10 or more cigarettes per day), read-out: Cmax
[9] = human, in vivo, Smokers, read-out: Tmax
[10] = Day 1, 5.667 mg tasimelteon alone
[11] = Day 8, 5.667 mg tasimelteon + 50 mg fluvoxamine
[12] = Smokers (10 or more cigarettes per day)

Row | AUC (inf), Geometric Mean Ratio [1] [%] | Cmax, Geometric Mean Ratio [1] [%] | t½, Geometric Mean Ratio [1] [%] | AUC (inf), Geometric Mean Ratio [2] [%] | Cmax, Geometric Mean Ratio [2] [%] | t½, Geometric Mean Ratio [2] [%] | AUC (inf) [1, 10] [ng·h/mL] | Cmax [1, 10] [ng/mL] | Tmax [1, 10] [min] | t½ [1, 10] [h] | AUC (inf) [1, 11] [ng·h/mL] | Cmax [1, 11] [ng/mL] | Tmax [1, 11] [min] | t½ [1, 11] [h] | AUC (inf) ([2]; Non-Smokers) [ng·h/mL] | Cmax ([2]; Non-Smokers) [ng/mL] | Tmax ([2]; Non-Smokers) [min] | t½ ([2]; Non-Smokers) [h] | AUC (inf) ([2]; Smokers) [ng·h/mL] | Tmax ([2]; Smokers) [min] | SMILES | other results
1 | 122.56 | 64.94 | 328.02 | 74.36 | 77.18 | 85.40 |  |  |  |  |  |  |  |  |  |  |  |  |  |  | CCC(=O)NC[C@@H]1C[C@H]1c1cccc(O)c1CC(=O)O [M9] | Cmax [1, 4]: 67.6 ± 19.1 ng/mL; Tmax [1, 5]: 30 min; half-life [1, 6]: 68.4 ± 17.4 min; AUC(0-inf) ([2]; human, in vivo, Non-Smokers): 406 ± 75 ng·h/mL; Cmax [2, 7]: 279 ± 82.8 ng/mL; half-life ([2]; human, in vivo, Non-Smokers): 82.8 ± 27 min; AUC(0-inf) ([2]; human, in vivo, Smokers): 315 ± 112 ng·h/mL; Cmax [2, 8]: 230 ± 118 ng/mL; Tmax [2, 9]: 45 min; half-life ([2]; human, in vivo, Smokers): 69 ± 10.2 min
2 | 126.03 | 68.71 | 248.35 | 81.84 | 84.50 | 94.13 |  |  |  |  |  |  |  |  |  |  |  |  |  |  | CCC(=O)NC[C@@H]1C[C@H]1c1cccc(O)c1CCO [M11] | Cmax [1, 4]: 15.8 ± 5.4 ng/mL; Tmax [1, 5]: 60 min; half-life [1, 6]: 96.6 ± 33 min; AUC(0-inf) ([2]; human, in vivo, Non-Smokers): 154 ± 58 ng·h/mL; Cmax [2, 7]: 54.9 ± 15.1 ng/mL; half-life ([2]; human, in vivo, Non-Smokers): 128 ± 56.4 min; AUC(0-inf) ([2]; human, in vivo, Smokers): 124 ± 42 ng·h/mL; Cmax [2, 8]: 46.2 ± 11.9 ng/mL; Tmax [2, 9]: 60 min; half-life ([2]; human, in vivo, Smokers): 119 ± 51 min
3 | 274.81 | 92.74 | 241.02 | 84.87 | 115.53 | 73.31 | 189 ± 90.8 | 31.0 ± 7.23 | 52.8 | 3.03 ± 1.02 | 435 ± 109.3 | 30.8 ± 17.6 | 180 | 7.03 ± 3.27 | 679 ± 433 | 108 ± 29 | 60 | 3.05 ± 1.73 | 526 ± 193 | 60 | CCC(=O)NCC1CC1c1cccc2c1C(O)CO2 (stereo not drawn) [M12] | t½ ([2]; Smokers): 2.11 ± 0.67 h; Cmax [2, 12]: 123 ± 28 ng/mL
4 | 125.05 | 69.31 | 349.81 | 97.31 | 99.49 | 77.51 | 106 ± 32.6 | 87.5 ± 24.4 | 30 | 1.00 ± 0.30 | 133 ± 32.9 | 63.6 ± 24.6 | 30 | 3.51 ± 1.18 | 337 ± 94 | 270 ± 71 | 30 | 1.18 ± 0.50 | 329 ± 99 | 45 | CCC(=O)NC[C@@H]1C[C@H]1c1cccc2c1CC(O)O2 (stereo partly drawn) [M13] | t½ ([2]; Smokers): 0.89 ± 0.26 h; Cmax [2, 12]: 272 ± 86 ng/mL
5 | 944.73 | 264.58 | 243.34 | 42.98 | 60.17 | 65.09 | 4.54 ± 2.39 | 1.20 ± 0.40 | 45 | 2.18 ± 0.97 | 42.6 ± 27.3 | 3.20 ± 1.49 | 240 | 4.98 ± 1.89 | 22.0 ± 24.2 | 6.18 ± 3.15 | 45 | 1.84 ± 1.22 | 9.45 ± 11.88 | 45 | CCC(=O)NCC1CC1c1cccc2c1C(O)CO2 (stereo not drawn) [M14] | t½ ([2]; Smokers): 1.13 ± 0.54 h; Cmax [2, 12]: 3.72 ± 1.86 ng/mL
6 |  |  |  |  |  |  |  |  |  |  |  |  |  |  |  |  |  |  |  |  | COc1ccc2[nH]cc(CCNC(C)=O)c2c1 [Melatonin] | Tmax [3]: ≥ 2 h
